For 34 compounds, Actual class and melting point results are on record in patent US9290427B2, “Anti-invasive compounds” (Universiteit Gent, priority 2012, dated 2016).

Structures are written as SMILES.

Data set [1] deals with MCF-7/6 mammary carcinoma cells. Also on record: unit not given here. The note with it: training set compounds 1-34, Indo-Belgian screening program; class = log cmin, lowest concentration with invasion grade I or II; cited from earlier work.

On to `COc1cc(O)c(C(=O)/C=C/c2ccc(Oc3ccccc3)cc2)cc1C(c1ccccc1)c1ccccc1` [Compound 3, (2E)-1-(5-Benzhydryl-2-hydroxy-4-methoxyphenyl)-3-(4-phenoxyphenyl)propenone], for which the Actual class in data set [1] is 3 (>100). Turning to `Cc1ccc(/C=C/C(=O)c2c(O)c3c(c4c2OC(C)(C)CC4)OC(C)(C)CC3)cc1` [Compound 4, (2E)-1-(5-Hydroxy-2,2,8,8-tetramethyl-3,4,9,10-tetrahydro-2H,8H-pyrano[2,3-f]chromen-6-yl)-3-p-tolyl-propenone], the Actual class in data set [1] is listed as 3 (>100).

With `COc1cc(OC)c(C(=O)/C=C/c2ccc3c(c2CCc2ccccc2)CCC(C)(C)O3)cc1CC=C(C)C` [Compound 5, (2E)-1-[2,4-Dimethoxy-5-(3-methylbut-2-enyl)phenyl]-3-(2,2-dimethyl-5-phenethylchroman-6-yl)propenone], the Actual class in data set [1] is 1 (about 10). As for `CC1(C)CCc2c(O)c(C(=O)/C=C/c3ccc(Oc4ccccc4)cc3)c3c(c2O1)CCC(C)(C)O3` [Compound 6, (2E)-1-(5-Hydroxy-2,2,8,8-tetramethyl-3,4,9,10-tetrahydro-2H,8H-pyrano[2,3-f]chromen-6-yl)-3-(4-phenoxypheny)propenone], in data set [1], the Actual class is given as 3 (>100).

As for `COc1ccc(/C=C/C(=O)c2c(O)c3c(c4c2OC(C)(C)CC4)OC(C)(C)CC3)cc1OCc1ccccc1` [Compound 7, (2E)-3-(3-Benzyloxy-4-methoxy-phenyl)-1-(5-hydroxy-2,2,8,8-tetramethyl-3,4,9,10-tetrahydro-2H,8H-pyrano[2,3-f]chromen-6-yl)propenone], the Actual class in data set [1] is reported as 3 (>100). For the compound `CC(C)c1ccc(/C=C/C(=O)c2c(O)c3c(c4c2OC(C)(C)CC4)OC(C)(C)CC3)cc1` [Compound 8, (2E)-1-(5-Hydroxy-2,2,8,8-tetramethyl-3,4,9,10-tetrahydro-2H,8H-pyrano[2,3-f]chromen-6-yl)-3-(4-isopropylphenyl)propenone], the Actual class in data set [1] is 3 (>100). In the case of `COc1cccc(/C=C/C(=O)c2cc3c(cc2O)OC(C)(C)C(O)C3)c1OC` (stereo not shown) [Compound 9, (2E)-1-(3,7-Dihydroxy-2,2-dimethylchroman-6-yl)-3-(2,3-dimethoxy-phenyl)propenone], the Actual class in data set [1] is 1 (about 10).

`COc1cc(OC)c(C(=O)/C=C/c2ccc([N+](=O)[O-])cc2)cc1CC=C(C)C` [Compound 10, (2E)-3-(4-nitrophenyl)-1-(2′,4′-dimethoxy-5′-(3-methylbut-2-enyl)phenyl)propenone]: in data set [1], the Actual class is listed as 3 (>100). Take `COc1cc(OC)c(C(=O)/C=C/c2ccccc2)c(O)c1CC=C(C)C` [Compound 11, (2E)-3-phenyl-1-(2′-hydroxy-4′,6′-dimethoxy-3′-(3-methylbut-2-enyl)phenyl)propenone]: in data set [1], the Actual class is given as 2 (about 100).

In the case of `COc1ccc(/C=C/C(=O)c2cc3c(cc2O)OC(C)(C)C(O)C3)c(OC)c1` (stereo not shown) [Compound 12, (2E)-1-(3,7-Dihydroxy-2,2-dimethylchroman-6-yl)-3-(2,4-dimethoxy-phenyl)propenone], the Actual class in data set [1] is 1 (about 10). Turning to `COc1cc(/C=C/C(=O)c2ccc(OCc3ccccc3)c(OCc3ccccc3)c2)ccc1OCc1ccccc1` [Compound 13, (2E)-3-(4-Benzyloxy-3-methoxyphenyl)-1-(3,4-bis-benzyloxyphenyl)propenone], the Actual class in data set [1] was 1 (about 10). Regarding `COc1cc(OC)c(C(=O)/C=C/c2ccc(C(C)C)cc2)cc1CC=C(C)C` [Compound 14, (2E)-3-(4-(1-methylethyl)phenyl)-1-(2′,4′-dimethoxy-5′-(3-methylbut-2-enyl)phenyl)propenone], the Actual class in data set [1] was 1 (about 10). With `COc1cc(OC)c(C(=O)/C=C/c2ccccc2)c(OC)c1CC=C(C)C` [Compound 15, (2E)-3-phenyl-1-(2′,4′,6′-trimethoxy-3′-(3-methylbut-2-enyl)phenyl)propenone], the Actual class in data set [1] is reported as 3 (>100). Consider `COc1ccc(C(=O)/C=C/c2ccc(C)cc2)cc1OC` [Compound 16, (2E)-3-(4-methylphenyl)-1-(3′,4′-dimethoxyphenyl)propenone], for which, in data set [1], the Actual class is reported as 2 (about 100). As for `COc1cc(OC)c(C(=O)/C=C/c2ccccc2)c(O)c1OC` [Compound 17, (2E)-3-phenyl-1-(2′-hydroxy-3′,4′,6′-trimethoxyphenyl)propenone], in data set [1], the Actual class was 2 (about 100). As to `COc1cc(OC)c(C(=O)/C=C/c2ccccc2)cc1CC=C(C)C` [Compound 18, (2E)-3-phenyl-1-(2′,4′-dimethoxy-5′-(3-methylbut-2-enyl)phenyl)propenone], in data set [1], the Actual class was 0 (about 1). Regarding `COc1cc(OC)c(C(=O)/C=C/c2ccc(OC)c(OC)c2)cc1CC=C(C)C` [Compound 19, (2E)-3-(3,4-dimethoxyphenyl)-1-(2′,4′-dimethoxy-5′-(3-methylbut-2-enyl)phenyl)propenone], the Actual class in data set [1] was 1 (about 10).

For `COc1ccc(C(=O)/C=C/c2ccc([N+](=O)[O-])cc2)cc1OC` [Compound 20, (2E)-3-(4-nitrophenyl)-1-(3′,4′-dimethoxyphenyl)propenone], in data set [1], the Actual class was 3 (>100).

For the compound `COc1cc(O)c(C(=O)/C=C/c2ccccc2)c(OC)c1OC` [Compound 21, (2E)-3-phenyl-1-(6′-hydroxy-2′,3′,4′-trimethoxyphenyl)propenone], the Actual class in data set [1] is 0 (about 1). For the compound `COc1ccc(/C=C/C(=O)c2ccc3c(c2)OCO3)c(OC)c1` [Compound 22, (2E)-1-Benzo[1,3]dioxol-5-yl-3-(2,4-dimethoxyphenyl)propenone], the Actual class in data set [1] is 2 (about 100).

In the case of `COc1ccc(/C=C/C(=O)c2cc3c(cc2O)OC(C)(C)CC3)cc1OC` [Compound 23, (2E)-3-(3,4-Dimethoxyphenyl)-1-(7-hydroxy-2,2-dimethylchroman-6-yl)propenone], the Actual class in data set [1] is listed as 2 (about 100). Regarding `COc1cc(OC)c(C(=O)/C=C/c2ccccc2)c2c1CC(O)C(C)(C)O2` (stereo not shown) [Compound 24, (2E)-1-(3-Hydroxy-5,7-dimethoxy-2,2-dimethylchroman-8-yl)-3-phenylpropenone], in data set [1], the Actual class is given as 0 (about 1). Consider `COc1cccc(/C=C/C(=O)c2ccc3c(c2)OCO3)c1OC` [Compound 26, (2E)-1-Benzo[1,3]dioxol-5-yl-3-(2,3-dimethoxyphenyl)propenone], for which, in data set [1], the Actual class is recorded as 1 (about 10). With `COc1cc(O)c(CC=C(C)C)c(O)c1C(=O)/C=C/c1ccc(O)cc1` [Compound 27, (2E)-3-(4-hydroxyphenyl)-1-(2′,4′-dihydroxy-6′-methoxy-3′-(3-methylbut-2-enyl)phenyl)propenone], the Actual class in data set [1] was 0 (about 1).

For `C=CCOc1c(OC)cc(O)c(C(=O)/C=C/c2ccc(O)cc2)c1OC` [Compound 28, (2E)-3-(4-hydroxyphenyl)-1-(6′-hydroxy-2′,4′-dimethoxy-3′-(2-propenyloxy)phenyl)propenone], the Actual class in data set [1] was 1 (about 10). Regarding `COc1ccc(/C=C/C(=O)c2cc3c(cc2OC)OC(C)(C)C(O)C3)c(OC)c1` (stereo not shown) [Compound 29, (2E)-3-(2,4-Dimethoxyphenyl)-1-(3-hydroxy-7-methoxy-2,2-dimethylchroman-6-yl)-propenone], in data set [1], the Actual class is recorded as 3 (>100). Regarding `COc1ccc(/C=C/C(=O)c2cc3c(cc2O)OC(C)(C)C=C3)c(OC)c1` [Compound 30, (2E)-3-(2,4-Dimethoxyphenyl)-1-(7-hydroxy-2,2-dimethyl-2H-chromen-6-yl)propenone], the Actual class in data set [1] is reported as 3 (>100). Turning to `COc1ccc(C(=O)/C=C/c2ccc(C(C)C)cc2)cc1OC` [Compound 31, (2E)-3-(4-(1-methylethyl)phenyl)-1-(3′,4′-dimethoxyphenyl)propenone], the Actual class in data set [1] is 3 (>100). `COc1ccc(C(=O)/C=C/c2cccc(Oc3ccccc3)c2)cc1OC` [Compound 32, (2E)-3-(3-phenoxyphenyl)-1-(3′,4′-dimethoxyphenyl)propenone]: in data set [1], the Actual class was 3 (>100). `COc1ccc(/C=C/C(=O)c2cc(CC=C(C)C)c(OC)cc2OC)c(OC)c1` [Compound 33, (2E)-3-(2,4-dimethoxyphenyl)-1-(2′,4′-dimethoxy-5′-(3-methylbut-2-enyl)phenyl)propenone]: the Actual class in data set [1] is 3 (>100). Take `COc1cc(OC)c(C(=O)/C=C/c2cccc(Oc3ccccc3)c2)cc1CC=C(C)C` [Compound 34, (2E)-3-(3-phenoxyphenyl)-1-(2′,4′-dimethoxy-5′-(3-methylbut-2-enyl)phenyl)propenone]: in data set [1], the Actual class was 3 (>100). Regarding `Fc1ccc(/C=C/c2ccc(F)cc2)cc1` [Compound 90, (E)-4,4′-Difluorostilbene], the melting point (commonly the temperature, or range, at which the solid turns liquid) is 116 to 117 °C.

Consider `Fc1ccc(/C=C/c2cccc(F)c2)cc1` [Compound 98, (E)-3,4′-Difluorostilbene], for which the melting point fell in the range of 92 to 93 °C. Same read-out and setting: to `COc1cccc(/C=C/c2ccc(Cl)cc2)c1` [Compound 99, (E)-4′-Chloro-3-methoxystilbene] belongs 71 to 72 °C.
